For data set [1] the following is noted: amines with electron withdrawing groups; cited from earlier work.
Data set [2] in a line: Rate of cleavage of linkages. Format: physicochemical.

`CCN(CCC#N)CCC#N` [C2H5N(CH2CH2CN)2]: the pKa in data set [1] is 4.55.

As to `N#CCN` [Polymer H2NCH2CN, H2NCH2CN], the pKa in data set [1] is given as 5.34.

For the compound `CCN(CC)CCC#N` [(C2H5)2N(CH2)2CN], the pKa in data set [1] is 7.65.

On to `CC1CCC(=N)S1` (stereo not shown) [Linkage X, 5-methyl-2-iminothiolane], for which, in data set [2], the “rate of cleavage, slower than an SMTP linkage (Compound XI)” value was 4 ×.

Usually pKa stands for the pH at which an ionisable group is half protonated.

These data come from US8008355B2, “Endosomolytic poly(vinyl ether) polymers” (Roche Madison Inc., priority 2002, dated 2011).
